ChEMBL document CHEMBL1140165, “Rotationally constrained 2,4-diamino-5,6-disubstituted pyrimidines: a new class of histamine H4 receptor antagonists with improved druglikeness and in vivo efficacy in pain and inflammation models” (J Med Chem, 2008)
Calls of active or inactive are those of the source. The rule behind the calls is not given here.

Tests used:
Histamine H4 receptor [1] = target: T1, Histamine H4 receptor (Rattus norvegicus, UniProt Q91ZY1); test: Antagonist activity at rat histamine H4 receptor expressed in HEK293 cells assessed as inhibition of histamine-induced intracellular calcium elevation by FLIPR assay; format: functional, cell-based
T1 sequence (Q91ZY1 whole entry): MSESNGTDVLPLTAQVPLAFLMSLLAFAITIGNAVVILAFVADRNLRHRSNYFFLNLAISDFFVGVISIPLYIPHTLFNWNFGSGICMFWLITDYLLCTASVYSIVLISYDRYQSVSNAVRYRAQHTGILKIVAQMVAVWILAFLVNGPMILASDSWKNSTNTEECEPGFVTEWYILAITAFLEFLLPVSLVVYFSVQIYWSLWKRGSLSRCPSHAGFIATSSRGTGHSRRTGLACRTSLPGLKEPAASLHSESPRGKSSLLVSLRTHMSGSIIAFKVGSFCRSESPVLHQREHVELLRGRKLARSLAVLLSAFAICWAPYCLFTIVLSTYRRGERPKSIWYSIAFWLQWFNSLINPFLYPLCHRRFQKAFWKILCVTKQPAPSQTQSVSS

Histamine H4 receptor [2] = target: T2, Histamine H4 receptor (Mus musculus, UniProt Q91ZY2); test: Antagonist activity at mouse histamine H4 receptor expressed in HEK293 cells assessed as inhibition of histamine-induced intracellular calcium elevation by FLIPR assay; format: functional, cell-based
T2 sequence (Q91ZY2 whole entry): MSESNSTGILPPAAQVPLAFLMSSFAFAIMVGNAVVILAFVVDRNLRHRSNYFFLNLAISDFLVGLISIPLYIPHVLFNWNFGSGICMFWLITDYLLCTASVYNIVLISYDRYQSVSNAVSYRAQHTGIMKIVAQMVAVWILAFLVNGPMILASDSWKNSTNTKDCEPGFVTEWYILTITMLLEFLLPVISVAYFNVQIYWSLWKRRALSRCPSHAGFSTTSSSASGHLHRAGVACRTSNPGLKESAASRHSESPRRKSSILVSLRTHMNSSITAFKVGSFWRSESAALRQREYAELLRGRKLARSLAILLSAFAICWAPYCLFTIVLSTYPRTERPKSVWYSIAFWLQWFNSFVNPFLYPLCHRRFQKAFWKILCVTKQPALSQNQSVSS

Histamine H4 receptor [3] = target: T3, Histamine H4 receptor (Homo sapiens, UniProt Q9H3N8); test: Displacement of [3H]histamine from human histamine H4 receptor expressed in HEK293 cells; format: cell-based
T3 sequence (Q9H3N8 whole entry): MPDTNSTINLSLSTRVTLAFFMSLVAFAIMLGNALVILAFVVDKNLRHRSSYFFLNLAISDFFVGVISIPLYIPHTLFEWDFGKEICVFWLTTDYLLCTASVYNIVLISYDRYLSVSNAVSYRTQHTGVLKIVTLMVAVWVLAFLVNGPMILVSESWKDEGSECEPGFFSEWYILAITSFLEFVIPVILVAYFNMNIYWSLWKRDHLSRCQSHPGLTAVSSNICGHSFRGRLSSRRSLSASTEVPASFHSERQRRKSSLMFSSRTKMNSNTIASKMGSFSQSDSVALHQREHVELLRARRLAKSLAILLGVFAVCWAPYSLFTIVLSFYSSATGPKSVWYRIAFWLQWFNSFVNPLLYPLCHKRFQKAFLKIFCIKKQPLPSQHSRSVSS

Histamine H4 receptor [4] = target: T1, Histamine H4 receptor; test: Displacement of [3H]histamine from rat histamine H4 receptor expressed in HEK293 cells; format: cell-based
BMMC = test: Blockade of histamine-induced morphological changes in BALB/c mouse BMMC by flow cytometry; format: functional, cell-based
[5] = Selectivity ratio of Ki for human histamine H4 receptor to Ki for histamine H1 receptor
[6] = Selectivity ratio of Ki for human histamine H4 receptor to Ki for histamine H2 receptor
Homo sapiens = species: Homo sapiens; test: Selectivity ratio of Ki for human histamine H4 receptor to Ki for human histamine H3 receptor
[7] = Selectivity ratio of Ki for human histamine H4 receptor to Ki for 5HT1A receptor
[8] = Selectivity ratio of Ki for human histamine H4 receptor to Ki for 5HT1D receptor
[9] = Selectivity ratio of Ki for human histamine H4 receptor to Ki for 5HT2A receptor
[10] = Selectivity ratio of Ki for human histamine H4 receptor to Ki for dopamine D2 receptor
[11] = Selectivity ratio of Ki for human histamine H4 receptor to Ki for adrenergic alpha1 receptor
Liver microsomes [12] = test: Metabolic stability in rat liver microsomes; format: ADME, Microsome
Liver microsomes [13] = test: Metabolic stability in human liver microsomes; format: ADME, Microsome
[14] = Metabolic stability in mouse liver microsomes; format: ADME, Microsome
[15] = Protein binding in rat; format: ADME, organism-based; conditions: in vivo, read-out: PB (converted)
[16] = Protein binding in human; format: ADME, organism-based; conditions: in vivo, read-out: PB (converted)
Cytochrome P450 3A4 = Cytochrome P450 3A4 (Homo sapiens, UniProt P08684); test: Inhibition of CYP3A4 upto 10 uM; format: ADME
Cytochrome P450 3A4, sequence (P08684 whole entry): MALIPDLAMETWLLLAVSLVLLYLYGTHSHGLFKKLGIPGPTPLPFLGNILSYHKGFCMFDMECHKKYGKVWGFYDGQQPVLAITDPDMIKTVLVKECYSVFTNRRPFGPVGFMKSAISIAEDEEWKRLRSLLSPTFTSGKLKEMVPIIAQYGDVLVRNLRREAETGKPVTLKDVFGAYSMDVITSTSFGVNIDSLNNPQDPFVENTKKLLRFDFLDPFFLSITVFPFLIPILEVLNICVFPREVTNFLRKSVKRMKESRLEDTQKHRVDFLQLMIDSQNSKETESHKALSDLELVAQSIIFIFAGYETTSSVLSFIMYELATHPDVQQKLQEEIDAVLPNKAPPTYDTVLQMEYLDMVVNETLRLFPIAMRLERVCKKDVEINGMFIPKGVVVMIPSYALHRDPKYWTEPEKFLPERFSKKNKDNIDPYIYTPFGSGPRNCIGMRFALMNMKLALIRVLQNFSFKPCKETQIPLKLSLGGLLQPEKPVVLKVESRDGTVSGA

Cytochrome P450 2D6 = Cytochrome P450 2D6 (Homo sapiens, UniProt P10635); test: Inhibition of CYP2D6 upto 10 uM; format: ADME
Cytochrome P450 2D6, sequence (P10635 whole entry): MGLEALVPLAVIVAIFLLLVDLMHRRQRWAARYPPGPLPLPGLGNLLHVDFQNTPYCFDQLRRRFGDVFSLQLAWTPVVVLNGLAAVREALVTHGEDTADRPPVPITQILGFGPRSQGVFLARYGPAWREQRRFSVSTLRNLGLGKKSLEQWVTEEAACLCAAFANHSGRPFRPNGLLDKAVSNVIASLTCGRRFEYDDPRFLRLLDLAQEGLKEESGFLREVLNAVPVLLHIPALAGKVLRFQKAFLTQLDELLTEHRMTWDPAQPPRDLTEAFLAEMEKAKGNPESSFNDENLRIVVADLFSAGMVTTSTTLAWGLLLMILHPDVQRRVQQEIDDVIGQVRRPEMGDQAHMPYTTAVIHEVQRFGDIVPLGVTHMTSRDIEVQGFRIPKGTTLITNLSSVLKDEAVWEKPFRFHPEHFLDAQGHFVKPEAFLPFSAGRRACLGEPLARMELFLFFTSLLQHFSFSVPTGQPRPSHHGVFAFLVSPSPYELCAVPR

Cytochrome P450 2C9 = Cytochrome P450 2C9 (Homo sapiens, UniProt P11712); test: Inhibition of CYP2C9 upto 10 uM; format: ADME
Cytochrome P450 2C9, sequence (P11712 whole entry): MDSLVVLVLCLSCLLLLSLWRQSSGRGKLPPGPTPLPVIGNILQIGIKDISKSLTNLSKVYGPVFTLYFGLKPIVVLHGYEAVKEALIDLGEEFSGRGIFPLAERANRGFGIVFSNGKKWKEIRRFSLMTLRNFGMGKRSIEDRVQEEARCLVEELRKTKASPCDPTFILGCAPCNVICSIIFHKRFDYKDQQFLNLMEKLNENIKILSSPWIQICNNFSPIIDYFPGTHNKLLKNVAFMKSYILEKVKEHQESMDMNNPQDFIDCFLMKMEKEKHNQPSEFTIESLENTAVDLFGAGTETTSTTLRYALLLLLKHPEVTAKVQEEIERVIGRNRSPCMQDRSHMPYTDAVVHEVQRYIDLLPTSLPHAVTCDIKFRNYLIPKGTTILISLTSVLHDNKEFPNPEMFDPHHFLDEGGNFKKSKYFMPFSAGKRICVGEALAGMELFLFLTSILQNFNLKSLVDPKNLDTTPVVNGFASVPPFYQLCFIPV

[17] = Half life in rat at 10 mg/kg, iv; format: ADME, organism-based; parameters: dose 10 mg/kg, route intravenous; conditions: in vivo
[18] = Blood clearance in rat at 10 mg/kg, iv; format: ADME, organism-based; parameters: dose 10 mg/kg, route intravenous; conditions: whole blood
[19] = Terminal volume of distribution in rat at 10 mg/kg, iv; format: ADME, organism-based; parameters: dose 10 mg/kg, route intravenous; conditions: in vivo, read-out: Vbeta
[20] = Fractional bioavailability in rat at 10 mg/kg, iv and 10 mg/kg, po; format: ADME, organism-based; conditions: in vivo
[21] = Half life in mouse at 5 mg/kg, iv; format: ADME, organism-based; parameters: dose 5 mg/kg, route intravenous; conditions: in vivo
[22] = Blood clearance in mouse at 5 mg/kg, iv; format: ADME, organism-based; parameters: dose 5 mg/kg, route intravenous; conditions: whole blood
[23] = Terminal volume of distribution in mouse at 5 mg/kg, iv; format: ADME, organism-based; parameters: dose 5 mg/kg, route intravenous; conditions: in vivo, read-out: Vbeta
[24] = Fractional bioavailability in rat at 5 mg/kg, iv and 5 mg/kg, po; format: ADME, organism-based; conditions: in vivo
[25] = Ratio of drug level in brain to plasma in rat at 10 mg/kg, iv after 30 mins; format: ADME, organism-based; parameters: dose 10 mg/kg, route intravenous
Mus musculus [26] = test: Antiinflammatory activity against ip dosed BALB/c mouse assessed as inhibition of zymosan-induced peritonitis after 2 hrs pretreated 30 mins before zymosan challenge; format: functional
Mus musculus [27] = test: Inhibition of clobenpropit-induced itching in ip dosed CD1/ICR mouse assessed as blockade of scratching in hind paw for 25 mins pretreated 30 mins before clobenpropit challenge; format: functional
Histamine H4 receptor [28] = target: T3, Histamine H4 receptor; conditions: HEK293
[29] = Cmax in mouse at 5 mg/kg, iv; format: ADME, organism-based; parameters: dose 5 mg/kg, route intravenous; conditions: in vivo
[30] = Tmax in mouse at 5 mg/kg, iv; format: ADME, organism-based; parameters: dose 5 mg/kg, route intravenous; conditions: in vivo
[31] = AUC (0 to t) in mouse at 5 mg/kg, iv; format: ADME, organism-based; parameters: dose 5 mg/kg, route intravenous; conditions: plasma
[32] = AUC (0 to infinity) in mouse at 5 mg/kg, iv; format: ADME, organism-based; parameters: time infinity, dose 5 mg/kg, route intravenous; conditions: plasma
Mus musculus [33] = test: (§1) Plasma clearance in mouse at 5 mg/kg, iv; format: ADME, organism-based; parameters: dose 5 mg/kg, route intravenous; conditions: in vivo
[34] = Cmax in mouse at 20 mg/kg, sc; format: ADME, organism-based; parameters: dose 20 mg/kg, route subcutaneous; conditions: in vivo
[35] = Tmax in mouse at 20 mg/kg, sc; format: ADME, organism-based; parameters: dose 20 mg/kg, route subcutaneous; conditions: in vivo
[36] = Half life in mouse at 20 mg/kg, sc; format: ADME, organism-based; parameters: dose 20 mg/kg, route subcutaneous; conditions: in vivo
[37] = AUC (0 to t) in mouse at 20 mg/kg, sc; format: ADME, organism-based; parameters: dose 20 mg/kg, route subcutaneous; conditions: plasma
[38] = AUC (0 to infinity) in mouse at 20 mg/kg, sc; format: ADME, organism-based; parameters: time infinity, dose 20 mg/kg, route subcutaneous; conditions: plasma
[39] = Oral bioavailability in mouse at 20 mg/kg, sc; format: ADME, organism-based; conditions: in vivo, subcutaneous
[40] = as §1; format: ADME, organism-based; parameters: dose 5 mg/kg, route intravenous; conditions: plasma
Rattus norvegicus = test: Antinociceptive efficacy in ip dosed spinal nerve ligated Sprague-Dawley rat assessed as reduction of neuropathic pain in paw; format: functional

Row | SMILES | EC50 (Histamine H4 receptor [1]) | EC50 (Histamine H4 receptor [2]) | Ki (Histamine H4 receptor [4]) | Activity (BMMC) | Stability (Liver microsomes [12]) | Stability (Liver microsomes [13]) | Stability [14] | fraction unbound [15] | fraction unbound [16] | Activity (Cytochrome P450 3A4) | Activity (Cytochrome P450 2D6) | Activity (Cytochrome P450 2C9) | half-life [21] | Vd [23] | bioavailability [24] | pKb (Histamine H4 receptor [28]) | Cmax [29] | Tmax [30] | AUC(0-t) [31] | AUC(0-inf) [32] | also measured
1 | Nc1nc2c(c(N3CCNCC3)n1)CCCc1ccccc1-2 | 14.8 nM | 18.2 nM | 7.59 nM | Active | 95.4 pmol/min/mg | 14.5 pmol/min/mg | 14 pmol/min/mg | 0.42 | 0.56 | Not Active | Not Active | Not Active | 294 min | 88.9 L/kg | 33% | 7.13 |  |  |  |  | Ki (Histamine H4 receptor [3]; read-out: Ki): 71 nM; Ratio Ki [5]: > 93; Ratio Ki [6]: > 130; Ratio Ki (Homo sapiens): 52; Ratio Ki [7]: 13; Ratio Ki [8]: 17; Ratio Ki [9]: > 185; Ratio Ki [10]: > 140; Ratio Ki [11]: 110; half-life [17]: 132 min; clearance [18]: 102 mL/min/kg; Vd [19]: 19.9 L/kg; bioavailability [20]: 37%; clearance [22]: 378 mL/min/kg; Kp at 0.5 h [25]: 2.1; ED50 (Mus musculus [26]): 21 µmol/kg; ED50 (Mus musculus [27]): > 72 µmol/kg
2 | O=C(c1cc2cc(Cl)ccc2[nH]1)N1CCNCC1 | 30.9 nM | 17.8 nM | 3.98 nM |  | 61.4 pmol/min/mg | 26.6 pmol/min/mg | 31.6 pmol/min/mg | 0.35 | 0.42 | Not Active | Not Active | Not Active | 97.8 min |  |  | 7.74 | 1120 nM | 30 min | 3.03 µM·h | 3.04 µM·h | Ki (Histamine H4 receptor [3]; read-out: pKi (converted)): 25.7 nM; Activity (Mus musculus [33]): Not Active; Cmax [34]: 2000 nM; Tmax [35]: 120 min; half-life [36]: 51.6 min; AUC(0-t) [37]: 11.8 µM·h; AUC(0-inf) [38]: 11.8 µM·h; bioavailability [39]: 0%
3 | CN1CCN(C(=O)c2cc3cc(Cl)ccc3[nH]2)CC1 [JNJ-7777120] |  |  |  | Active | 179 pmol/min/mg | 19 pmol/min/mg | 143 pmol/min/mg | 0.28 | 0.23 | Not Active | Not Active | Not Active | 22.8 min | 11 L/kg | 24.1% |  | 2220 nM | 6 min | 0.9 µM·h | 0.9 µM·h | clearance [40]: 334 mL/min/kg; Cmax [34]: 500 nM; Tmax [35]: 30 min; half-life [36]: 58.2 min; AUC(0-t) [37]: 2.79 µM·h; AUC(0-inf) [38]: 2.79 µM·h; bioavailability [39]: 77.6%; ED50 (Rattus norvegicus): 217 µmol/kg
